Data published in patent publication US9920039B2, “1,2,4-Oxadiazol compounds active against gram-positive pathogens” (UNIVERSITÀ DEGLI STUDI DI MILANO—BICOCCA, priority 2013, dated 2018).
In brackets after ≈: the same amount, converted by molar mass. Like-named read-outs stand apart in the source and are kept apart here.

Tests used:
[1] = tested on: 6 ATCC (4MSSA, 2 MRSA)plus45 MRSA all LZD sensitive; assay: MIC on strain panel (Table 4); format: cell-based, Staphylococcus aureus; details: 6 ATCC plus 45 MRSA; for MIC-range: tested range ≤0.06 - >128
Excerpt: (§1) The in vitro antibacterial activity of the new agents was studied by determining their minimum inhibitory concentrations (MICs) by means of the broth microdilution method according to the Clinical and Laboratory Standards Institute (CLSI) guidelines.[16] Briefly, serial 2-fold dilutions of each compound were made using the Cation adjusted Mueller-Hinton broth (CAMHB) in microtitre plates with 96 wells. Dimethyl sulfoxide (DMSO) was used as solvent for all the synthesized compounds. An equal volume of the bacterial inoculum (1×10^6 CFU/mL) was added to each well on the microtitre plate containing 0.05 mL of the serial antibiotic dilutions. The microtitre plate was then incubated at 37° C. for 18-24 h after which each well was analysed for the presence of bacterial growth. The MIC was defined as the lowest concentration of antimicrobial agent able to cause inhibition of bacterial growth as shown by the lack of turbidity of the culture medium. […] Final DMSO concentrations were also taken into account in all the biological assays.

[2] = tested on: 12 MRSE all LZD sensitive; assay: MIC on strain panel (Table 4); format: cell-based, Staphylococcus epidermidis
Excerpt: as §1

[3] = tested on: Staphylococcus aureus ATCC 29213; assay: MIC by broth microdilution (CLSI); format: cell-based; details: ATCC 29213
Excerpt: (§2) Several well characterized for their antibiotic-susceptibility phenotype Staphylococcus aureus isolates were used for the determination of the in vitro antibacterial activity of the studied compounds. In particular, S. aureus ATCC 29213 reference standard strain and S. aureus M923 (collection strain) were used as MSSA strains. Among MRSA, S. aureus MU50 (ATCC 700699) reference standard strain and two collection strains (433 and F511) were used for susceptibility assays.
as §1
(§3) The antimicrobial activities, summarized in Table 2, were determined by the “gold standard” method of broth microdilution, as recommended by the Clinical Laboratory Standards Institute (CLSI) (See the Experimental Section). […] In detail, the bacterial strains were tested: Staphylococcus aureus ATCC 29213, a clinical strain of methicillin-susceptible S. aureus (M923), S. aureus MU50 (methicillin-resistant—MRSA), and two methicillin-resistant clinical strains, 433 and F511.
(§4) The antimicrobial activities, summarized in Table 3, were determined by the “gold standard” method of broth microdilution, as recommended by the Clinical Laboratory Standards Institute (CLSI) (See the Experimental Section). The minimum inhibitory concentration (MIC) values were expressed in μg/mL. […] In detail, the tested bacterial strains were: Staphylococcus aureus ATCC 29213, a clinical strain of methicillin-susceptible S. aureus (M923), S. aureus MU50 (methicillin-resistant—MRSA) strain, and two methicillin-resistant clinical strains, 433 and F511.

MRSA clinical strain 433 = assay: MIC by broth microdilution (CLSI); format: cell-based, Staphylococcus aureus; details: MRSA 433
Excerpt: as §2, §1, §3, §4

[4] = tested on: MRSA clinical strain F511; assay: MIC by broth microdilution (CLSI); format: cell-based, Staphylococcus aureus
Excerpt: as §2, §1, §3, §4

[5] = tested on: S. aureus MU50 (ATCC 700699), methicillin-resistant (MRSA); assay: MIC by broth microdilution (CLSI); format: cell-based, Staphylococcus aureus
Excerpt: as §2, §1, §3, §4

[6] = tested on: methicillin-susceptible S. aureus (M923); assay: MIC by broth microdilution (CLSI); format: cell-based, Staphylococcus aureus; details: MSSA M923
Excerpt: as §2, §1, §3, §4

[7] = Staphylococcus aureus, ATCC29213, racemic form, Table 3, read-out: MIC
[8] = Staphylococcus aureus, racemic form, Table 3, read-out: MIC
[9] = Staphylococcus aureus, ATCC29213, racemic mixture, Table 2, read-out: MIC
[10] = Staphylococcus aureus, racemic mixture, Table 2, read-out: MIC

| SMILES | MIC [3, 9] [µg/mL] | MIC (MRSA clinical strain 433; [10]) [µg/mL] | MIC [4, 10] [µg/mL] | MIC [5, 10] [µg/mL] | MIC [6, 10] [µg/mL] | melting point [°C] | also measured |
| --- | --- | --- | --- | --- | --- | --- | --- |
| CNC(=S)NC[C@@H]1CN(c2ccc(-c3nc(C)no3)c(F)c2)C(=O)O1 [Compound B4bR] | – | – | – | – | – | – | MIC50 [1]: >128 µg/mL; MIC90 [1]: >128 µg/mL; MIC50 [2]: >128 µg/mL; MIC90 [2]: >128 µg/mL |
| CNC(=S)NC[C@@H]1CN(c2ccc(-c3nc(C)no3)cc2)C(=O)O1 [Compound B4aR] | – | – | – | – | – | – | MIC50 [1]: >128 µg/mL; MIC90 [1]: >128 µg/mL; MIC50 [2]: >128 µg/mL; MIC90 [2]: >128 µg/mL; MIC range [2]: >128 µg/mL |
| Cc1noc(-c2ccc(N3CC(CN=C=S)OC3=O)cc2F)n1 (racemic) [Compound B2b] | – | – | – | – | – | – | MIC [3, 7]: > 50 µg/mL; MIC (MRSA clinical strain 433; [8]): > 50 µg/mL; MIC [4, 8]: > 50 µg/mL; MIC [5, 8]: > 50 µg/mL; MIC [6, 8]: > 50 µg/mL |
| Cc1noc(-c2ccc(N3CC(CNC(N)=S)OC3=O)cc2F)n1 (racemic) [Compound B3b] | – | – | – | – | – | – | MIC ([3]; racemic form, Table 3): >50 µg/mL; MIC (MRSA clinical strain 433; racemic form, Table 3): >50 µg/mL; MIC ([4]; racemic form, Table 3): >50 µg/mL; MIC ([5]; racemic form, Table 3): >50 µg/mL; MIC ([6]; racemic form, Table 3): >50 µg/mL |
| Cc1noc(-c2ccc(N3CC(CN=[N+]=[N-])OC3=O)cc2F)n1 (racemic) [Compound A2b, 3-(3′-fluoro-4′-(3″-methyl-1,2,4-oxadiazol-5-yl)-phenyl)-5-(azidometil)-oxazolidin-2-one] | > 50 | > 50 | > 50 | > 50 | > 50 | 126.2 to 127.7 | – |
| Cc1noc(-c2ccc(N3CC(CI)OC3=O)cc2)n1 (racemic) [Compound A1a, 3-(4′-(3″-methyl-1,2,4-oxadiazol-5″-yl)-phenyl)-5-(iodomethyl)-oxazolidin-2-one] | > 50 | 25 (≈ 64.9 µM) | 50 (≈ 130 µM) | 50 (≈ 130 µM) | > 50 | 145 to 147 | – |
| Cc1noc(-c2ccc(N3CC(Cn4cncn4)OC3=O)cc2)n1 (racemic) [Compound A7a] | > 50 | > 50 | > 50 | > 50 | > 50 | – | – |
| Cc1noc(-c2ccc(N3CC(CI)OC3=O)cc2F)n1 (racemic) [Compound A1b, 3-(3′-fluoro-4′-(3″-methyl-1,2,4-oxadiazol-5″-yl)-phenyl)-5-(iodomethyl)-oxazolidin-2-one] | > 50 | 50 (≈ 124 µM) | > 50 | 50 (≈ 124 µM) | > 50 | 148 to 149 | – |
| CNC(=S)NCC1CN(c2ccc(-c3nc(C)no3)cc2)C(=O)O1 (racemic) [Compound B4a, 1-((3-(4-(3-methyl-1,2,4-oxadiazol-5-yl)phenyl)-oxazolidin-2-one-5-yl)methyl)-3-methylthiourea] | – | – | – | – | – | 189.4 to 191.8 | MIC [3, 7]: 6.25 µg/mL (≈ 18 µM); MIC (MRSA clinical strain 433; [8]): 3.12 µg/mL (≈ 9 µM); MIC [4, 8]: 6.25 µg/mL (≈ 18 µM); MIC [5, 8]: 1.6 µg/mL (≈ 4.61 µM); MIC [6, 8]: 6.25 µg/mL (≈ 18 µM); MIC-range [1]: 1 to 16 µg/mL; MIC50 ([1]; Staphylococcus aureus, read-out: MIC50): 8 µg/mL; MIC90 ([1]; Staphylococcus aureus, read-out: MIC90): 16 µg/mL; MIC50 ([2]; Staphylococcus epidermidis, read-out: MIC50): 64 µg/mL (≈ 184 µM); MIC90 ([2]; Staphylococcus epidermidis, read-out: MIC90): > 128 µg/mL |
| CC(=O)NCC1CN(c2ccc(-c3nc(C)no3)c(F)c2)C(=O)O1 (racemic) [Compound A3b, 3-(3′-fluoro-4′-(3″-methyl-1,2,4-oxadiazol-5-yl)-phenyl)-5-(N-acetylaminomethyl)-oxazolidin-2-one] | 12.5 (≈ 37.4 µM) | 1.6 (≈ 4.79 µM) | 12.5 (≈ 37.4 µM) | 6.25 (≈ 18.7 µM) | 6.25 (≈ 18.7 µM) | 184 to 186 | – |
| Cc1noc(-c2ccc(N3CC(Cn4ccnc4)OC3=O)cc2)n1 (racemic) [Compound A6a] | > 50 | > 50 | > 50 | > 50 | > 50 | – | – |
| Cc1noc(-c2ccc(N3CC(CNC(N)=S)OC3=O)cc2)n1 (racemic) [Compound B3a] | – | – | – | – | – | – | MIC ([3]; racemic form, Table 3): >50 µg/mL; MIC (MRSA clinical strain 433; racemic form, Table 3): >50 µg/mL; MIC ([4]; racemic form, Table 3): >50 µg/mL; MIC ([5]; racemic form, Table 3): >50 µg/mL; MIC ([6]; racemic form, Table 3): >50 µg/mL |
| CC(=S)NCC1CN(c2ccc(-c3nc(C)no3)cc2)C(=O)O1 (racemic) [Compound A4a, 3-(4′-(3″-methyl-1,2,4-oxadiazol-5-yl)-phenyl)-5-(N-thioacetylaminomethyl)-oxazolidin-2-one] | 3.13 (≈ 9.42 µM) | 1.6 (≈ 4.81 µM) | 1.6 (≈ 4.81 µM) | ≤ 0.4 | 1.6 (≈ 4.81 µM) | – | – |
| Cc1noc(-c2ccc(N3CC(CN=[N+]=[N-])OC3=O)cc2)n1 (racemic) [Compound A2a, 3-(4′-(3″-methyl-1,2,4-oxadiazol-5-yl)-phenyl)-5-(azidometil)-oxazolidin-2-one] | > 50 | > 50 | > 50 | > 50 | > 50 | 133.9 to 135 | – |
| CC(=O)NCC1CN(c2ccc(-c3nc(C)no3)cc2)C(=O)O1 (centres unmarked) [Compound A3a, 3-(4′-(3″-methyl-1,2,4-oxadiazol-5-yl)-phenyl)-5-(N-acetylaminomethyl)-oxazolidin-2-one] | 12.5 (≈ 39.5 µM) | 1.6 (≈ 5.06 µM) | 12.5 (≈ 39.5 µM) | 6.25 (≈ 19.8 µM) | 6.25 (≈ 19.8 µM) | 214 to 216 | – |
| Cc1noc(-c2ccc(N3CC(Cn4cncn4)OC3=O)cc2F)n1 (racemic) [Compound A7b] | > 50 | > 50 | > 50 | > 50 | > 50 | – | – |
| Cc1noc(-c2ccc(N3CC(Cn4cccn4)OC3=O)cc2)n1 (racemic) [Compound A5a] | > 50 | > 50 | > 50 | > 50 | > 50 | – | – |
| Cc1noc(-c2ccc(N3CC(Cn4ccnc4)OC3=O)cc2F)n1 (racemic) [Compound A6b] | > 50 | > 50 | > 50 | > 50 | > 50 | – | – |
| CNC(=S)NC[C@H]1CN(c2ccc(-c3nc(C)no3)cc2)C(=O)O1 [Compound B4aS] | – | – | – | – | – | – | MIC50 [1]: 2 µg/mL; MIC90 [1]: 4 µg/mL; MIC-range [1]: 0.5 to 8 µg/mL; MIC50 [2]: 16 µg/mL (≈ 46.1 µM); MIC90 [2]: 32 µg/mL (≈ 92.1 µM); MIC range [2]: 8 to 32 µg/mL |
| Cc1noc(-c2ccc(N3CC(Cn4cccn4)OC3=O)cc2F)n1 (racemic) [Compound A5b] | > 50 | > 50 | > 50 | > 50 | > 50 | – | – |
| CNC(=S)NC[C@H]1CN(c2ccc(-c3nc(C)no3)c(F)c2)C(=O)O1 [Compound B4bS] | – | – | – | – | – | – | MIC50 [1]: 2 µg/mL; MIC90 [1]: 4 µg/mL; MIC-range [1]: 0.5 to 8 µg/mL; MIC50 [2]: 8 µg/mL (≈ 21.9 µM); MIC90 [2]: 8 µg/mL (≈ 21.9 µM) |
| Cc1noc(-c2ccc(N3CC(CN=C=S)OC3=O)cc2)n1 (racemic) [Compound B2a] | – | – | – | – | – | – | MIC [3, 7]: > 50 µg/mL; MIC (MRSA clinical strain 433; [8]): > 50 µg/mL; MIC [4, 8]: 50 µg/mL (≈ 158 µM); MIC [5, 8]: > 50 µg/mL; MIC [6, 8]: > 50 µg/mL |

The next lines start with results.

| MIC [3, 9] [µg/mL] | MIC (MRSA clinical strain 433; [10]) [µg/mL] | MIC [4, 10] [µg/mL] | MIC [5, 10] [µg/mL] | MIC [6, 10] [µg/mL] | melting point [°C] | SMILES | also measured |
| --- | --- | --- | --- | --- | --- | --- | --- |
| – | – | – | – | – | 208 to 210 | Cc1noc(-c2ccc(N3CC(Cn4ccnn4)OC3=O)cc2)n1 (racemic) [Compound B1a] | MIC [3, 7]: 25 µg/mL (≈ 76.6 µM); MIC (MRSA clinical strain 433; [8]): 12.5 µg/mL (≈ 38.3 µM); MIC [4, 8]: 12.5 µg/mL (≈ 38.3 µM); MIC [5, 8]: 3.12 µg/mL (≈ 9.58 µM); MIC [6, 8]: 25 µg/mL (≈ 76.6 µM) |
| – | – | – | – | – | 176.2 to 177.8 | Cc1noc(-c2ccc(N3CC(Cn4ccnn4)OC3=O)cc2F)n1 (racemic) [Compound B1b] | MIC [3, 7]: 25 µg/mL (≈ 72.6 µM); MIC (MRSA clinical strain 433; [8]): 6.25 µg/mL (≈ 18.2 µM); MIC [4, 8]: 12.5 µg/mL (≈ 36.3 µM); MIC [5, 8]: 1.6 µg/mL (≈ 4.65 µM); MIC [6, 8]: 25 µg/mL (≈ 72.6 µM) |
